Data on two compounds can be found in US20150051210A1, “Tyrosine Kinase Inhibitor Combinations and their Use” (Novartis AG, priority 2012, published 2015).

For assay [1], the system named is patient-derived non-small cell lung cancer xenograft LXFL 1121. The experiment in a line: In vivo anti-tumor efficacy study in xenograft LXFL 1121. The following applies: for anti-tumor effect compared to vehicle control / Δ tumor volume: Cpd. B 10 mg/kg bid/qd; for anti-tumor effect compared to vehicle control: BGJ398 40 mg/kg qd orally, 18 days; for Δ tumor volume: end values, BGJ398 40 mg/kg qd, control C 309.6. The protocol:
The in vivo anti-tumor efficacy study in the patient-derived non-small cell lung cancer xenograft LXFL 1121 was carried out. Xenografts were grown subcutaneously in nude mice. Eight tumor-bearing mice each were treated with either vehicle control, Cpd. B alone, BGJ398 alone or both drugs in combination at the doses and frequencies indicated. Note that frequency of Cpd. […] Tumor volumes were measured on the indicated days and synergy of the combination treatment was assessed by the method of Clarke, R., Breast Cancer Res. Treat., […].
Mice bearing xenografts derived from this model were randomized to 4 groups that were then treated with a vehicle control, Cpd. B as single agent, BGJ398 as single agent or a combination of both drugs. Cpd. B was commenced at a dose of 10 mg/kg twice daily. BGJ398 was given orally at a dose of 40 mg/kg once daily, and the same regimen for both drugs was used in combination. […] The study was continued in this setup until day 18.
The significance of combination data was assessed using the method presented by Clark (2), which can estimate interactions from limited data. For compound A, B or the combination AB (with control group C), the end values are collected. Antagonism is predicted when the calculation AB/C>A/C×B/C, additive AB/C=A/C×B/C, synergistic interactions are predicted to occur when […].

Assay [2] relates to phosphorylation of MET, ERK1/2, AKT, FRS2 in MKN-45. The experiment in a line: Western blots of protein phosphorylation in MKN-45 cells. The assay is classed as cell-based. As for the experimental part: (§1) Western Blots (Figures not Shown) MKN-45 and RT-112 cells were treated in 6-well plates for 2 hours and 18 hours in the presence or absence of purified protein (rhFGF7, rhNRG1-31, or rhHGF), and/or inhibitor (Cpd. B, Cpd. A, BGJ398). Following wash with ice-cold PBS, cells were lysed with RIPA buffer (Thermo) containing phosphatase (Thermo) and proteinase (Roche) inhibitor cocktails. Total protein was quantified by bicinchoninic protein assay (Pierce). Aliquots of 20 μg were resolved by electrophoresis on NuPAGE SDS-PAGE 4-12% BIS-Tris gels before transfer to nitrocellulose membranes. Membranes were blocked for one hour at room temperature before overnight incubation at 4° C. with the following primary antibodies (source rabbit, 1:1000 final dilution): anti-phospho-Akt (Ser473), anti-phospho-MET (Tyr1234/1235), anti-phospho-MAPK/ERK(1/2) (Thr202/Tyr204), anti-AKT, anti-MAPK/Erk(1/2), and anti-α/β-Tubulin . Anti-MET was probed at 1:800 final dilution An internal antibody was used for phospho-FRS2(Y346) (1:1500 dilution). Membranes were then washed 3 times in PBS+0.1% Tween before addition of secondary antibody, IRDye 680LT goat anti-rabbit IgG , dilution 1:15000. After one hour at room temperature, membranes were washed and bands were visualized using an Odyssey Infrared Imager.

A further assay deals with KYM-1 cells. The experiment in a line: Combination assay (concentration matrix, resazurin, Loewe synergy) in KYM-1. The assay is classed as cell-based. The following applies: KYM-1, checkerboard layout, monolayer / non-adherent / semi-solid media. The protocol: (§2) Combinatorial anti-proliferative effects of Cpd. B (“B) in the tables below) and BGJ398 (“C” in the tables below) were measured in KYM-1, MG-63, and Hs-683 cells on 96-well-plates using the concentration matrix depicted below:
(§3) Cells were grown under three different conditions (see FIG. 7): Experiments labeled “monolayer” were conducted on regular tissue culture plates, allowing cells to adhere and eventually form a monolayer. Cells were seeded on 3 plates per experiment (triplicates) in standard growth media as described above at a density of 5000 per well. Six to eight wells on a separate plate were seeded to quantify the amount of viable cells at the point of compound addition. […] At the same time, viable cells on the separate plate mentioned above were quantified using a resazurin sodium salt dye reduction readout. […] Quantification of Synergy was done using the methods described in G. R. Zimmermann et al., Drug Discovery Today, Vol. 12, No. ½, 2007, pages 34 to 42, and especially J. Lehár et al., Nature Biotechnology Vol. 27, No. 7, 2009, pages 659 to 666, in short by iteratively calculating the Loewe additive response ILoewe (X, Y) at each dose matrix point from the single-agent response curves, and then summing the differences between ILoewe and the experimental data. […]
A general note: Alamar Blue is a resazurin reagent that responds to reducing activity.

Assay [3] relates to phosphorylation of MET, FRS2, ERK, AKT in RT-112. Put plainly: Western blots of protein phosphorylation in RT-112 cells. The assay is classed as cell-based. As for the experimental part: as §1
Background: A western blot detects proteins with antibodies after separation by electrophoresis.

Another assay has as its system MG-63 cells. The experiment in a line: Combination assay (concentration matrix, resazurin, Loewe synergy) in MG-63. The assay is classed as cell-based. To be noted: MG-63, semi-solid media. The protocol: as §2, §3
Where [4] appears, read: Δ tumor volume relative to control group C.

Consider `CNC(=O)c1ccc(-c2cnc3ncc(Cc4ccc5ncccc5c4)n3n2)cc1F` [Cpd. B, 2-fluoro-N-methyl-4-[(7-quinolin-6-yl-methyl)-imidazo[1,2-b]triazin-2-yl]benzamide], for which, in assay [1], the “anti-tumor effect compared to vehicle control” value is “very modest, statistically not significant anti-tumor effect” and the Δ tumor volume amounted to 333.6. For the same compound, the A/C in assay [1] (setting [4]) was 1.078. Further, the “effect on phosphorylation of several proteins (MET, ERK1/2, AKT, FRS2)” value in assay [2] (MKN-45, absence of added ligands) is given as “profound effect”. Also, in the assay with KYM-1 cells, the growth suppression result is on record as “no effect”. In assay [3] (RT-112, BGJ398 plus HGF, simultaneous addition), the “prevention of HGF rescue of ERK phosphorylation” value is reported as “prevented this rescue effect”. The MET phosphorylation result in assay [3] (RT-112, absence of ligands) is reported as “specifically inhibited MET phosphorylation”.

Regarding `CCN1CCN(c2ccc(Nc3cc(N(C)C(=O)Nc4c(Cl)c(OC)cc(OC)c4Cl)ncn3)cc2)CC1` [BGJ398, 3-(2,6-dichloro-3,5-dimethoxy-phenyl)-1-{6-[4-(4-ethylpiperazin-1-yl)-phenylamino]-pyrimidin-4-yl}-1-methyl-urea], the growth inhibition result in the assay with MG-63 cells is listed as “strong growth inhibition”. In addition, in assay [1], the “anti-tumor effect compared to vehicle control” value is “strong tumor growth inhibition resulting in stable disease” and the Δ tumor volume is reported as −16.6. Also, in assay [1] (setting [4]), the B/C is −0.054. In addition, the “reversal of FGF7 rescue effect on FRS2 and ERK1/2 phosphorylation” value in assay [2] (MKN-45, MET inhibitor plus FGF7) is “reversed”. The growth suppression result in the assay with KYM-1 cells is “partial growth suppression”. Further, the “FRS2 and ERK phosphorylation” value in assay [3] (RT-112, absence of ligands) is “reduced both FRS2 and ERK phosphorylation”.
